From patent US20060252679A1, “Preventive and/or trerapeutic drgs for itch” (priority 2002, published 2006)

How the values were obtained:
[1] = molecular target: T1, GPR4 (Homo sapiens, UniProt P46093); assay: Antagonistic action on GPR4 (luciferase reporter in GPR4 assay cells); type: cell-based; details: 17β-estradiol 10 nmol/L, 6 hours, luciferase luminescence
T1 construct: expressed in transfected cells; host or cells: KJMGER8 (Namalwa KJM-1 human B-cell line stably expressing Gal4-ER), stably co-transfected with pAGal9-GPR4 and the CRE-luciferase reporter pACREpluc
T1 sequence (P46093 whole entry E215Q, the tested form may be a part): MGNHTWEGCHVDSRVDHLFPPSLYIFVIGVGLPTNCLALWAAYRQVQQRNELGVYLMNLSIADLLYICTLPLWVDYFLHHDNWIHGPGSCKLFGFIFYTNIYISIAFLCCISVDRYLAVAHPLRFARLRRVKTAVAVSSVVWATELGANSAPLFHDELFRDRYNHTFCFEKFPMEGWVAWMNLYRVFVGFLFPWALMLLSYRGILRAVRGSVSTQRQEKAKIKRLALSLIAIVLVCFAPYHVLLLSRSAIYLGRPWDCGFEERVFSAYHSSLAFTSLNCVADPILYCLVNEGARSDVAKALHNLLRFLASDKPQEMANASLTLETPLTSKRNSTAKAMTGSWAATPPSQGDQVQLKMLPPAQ
Method: Cells for GPR4 assay prepared in Referential Example 5 (said assay cells express GPR4 by stimulation with 17β-estradiol) were seeded on white plates at the rate of 10^5 cells/well, and a solution where 17β-estradiol (manufactured by Sigma) was diluted with a medium so as to make 10 nmol/L in the reaction solution and test compounds were added to the plate and the mixture was incubated at 37° C. for 6 hours in a 5% CO2 incubator. After that, a Steady Glo Luciferase Assay System (manufactured by Promega) solution was added to stop the reaction and the amount of luminescence during one second was measured using a Top Count (Packard, Meriden, Conn., U.S.A.).
Activity of the each of test compounds (antagonistic action) was expressed by an inhibition rate calculated on the basis of counts per second in the presence or absence of 17β-estradiol as shown by the following formula. IC50 value was calculated from the inhibition rate by a linear approximate analysis of the Logit-Log conversion method.
In the formula, A, B and C each have the following meaning, respectively.
A: counts per second when 17β-estradiol and the test compound were added
B: counts per second when neither 17β-estradiol nor the test compound was added
C: counts per second when only 17β-estradiol was added Inhibition Rate (%)=[1−{(A−B)/(C−B)}]×100
2 μl of plasmid pAGal9-GPR4 with inducible expression of GPR4 and 2 μl of reporter plasmid pACREpluc were co-transferred into 6×10^6 cell of KJMGER8 by the above-mentioned electroporation. The transformants were suspended in 8 ml of an RPMI 1640-ITPSG medium and cultured in a CO2 incubator at 37° C. for 24 hours. After the cultivation, blasticidin S ([…]), hygromycin B (300 μg/ml) and geneticin ([…]) were added and cultivation was carried out for 14 days more, and stable transformants (called GPR4 assay cells) were obtained. The transformants were subcultured in an RPMI 1640-ITPSG medium containing blasticidin S (2.0 μg/ml), hygromycin B (300 μg/ml) and geneticin ([…]).

[2] = system: Itching in Chronic Dermatitis Model to which Hapten was Repeatedly Applied; assay: Effect on itching in chronic dermatitis model to which hapten (oxazolone) was repeatedly applied; type: in vivo, BALB/c male mice; details: mean ± standard error, control group 264 ± 29
Method: Preparation of chronic dermatitis model to which hapten was repeatedly applied was conducted according to the method by Kitagaki, et al. [Journal of Investigative Dermatology, volume 105, pages 749-755 (1995)] with some modifications.
With regard to hapten, oxazolone (manufactured by Sigma-Aldrich) was used and dissolved in acetone (manufactured by Kanto Kagaku) to prepare a 0.5 w/v % solution of oxazolone in acetone (antigen solution). The antigen solution (10 μL) was applied to the rostal back of BALB/c male mice (6 weeks age) with the hair was shaved to sensitize the mice. Starting from 7 days thereafter (day 0), the antigen solution (10 μL) was repeatedly challenged to apply at the same site until day 16 every two or three days to prepare chronic dermatitis models.
Compound 1 was suspended in a 0.5 w/v % aqueous solution of MC in a concentration of 10 and 30 mg/mL, respectively, and orally administered at a dose of 10 mL/kg at 1 hour before application of the antigen solution on the day 16. As a control group, a group to which only 0.5 w/v % aqueous solution of MC was similarly administered per os was prepared. […]
In order to adjust the mice to new environment, they were allowed to place for one hour in a cage (7.5×8×15 cm) made of acrylic for observation. […] The numbers of scraching behavior by hind limb to the applied site and around there were counted.

[3] = system: Itching Induced by Compound 48/80; assay: Effect on itching induced by Compound 48/80 (scratching behavior in mice); type: in vivo, ddY strain mice; details: 300 mg/kg orally one hour before Compound 48/80 (10 μg/site s.c.); for Numbers of Scratching Behavior (numbers/60 min): ten mice per group; for Suppressive rate(%) of scratching behavior induced by Compound 48/80: versus Compound 48/80-administered group
Method: Compound 48/80 (10 μg/site) was subcutaneously administered (a Compound 48/80-administered group) to the rostal back of ddY strain mice (4 weeks age), the mice were placed in a cage made of acrylic for the observation (7.5×7.5×15 cm) and behavior of the mice was taken by a video camera for 60 minutes in the absence of observing persons. The video camera was subjected to a playback and numbers of scratching behavior by hind limb were counted by visual observation. In a negative control group (a group to which a physiological saline was administered), a physiological saline (0.1 mL/site) was administered instead of Compound 48/80. In the compound-administered group, each compound 1 and compound 3 (300 mg/kg) was suspended in a 0.5 w/v % aqueous solution of methyl cellulose (MC) and orally administered at one hour before administration of Compound 48/80. In each of the Compound 48/80-administered group and the physiological saline-administered group, a 0.5 w/v % aqueous solution of MC was orally administered at one hour before administration of Compound 48/80 and physiological saline, respectively. The test was conducted for ten mice per group. Suppressive rate by the compound for scratching behavior induced by Compound 48/80 was calculated by the following formula.
In the formula, C and D have the following meanings.
C: numbers of scratching behavior of the Compound 48/80-administered group
D: numbers of scratching behavior of the compound-administered group Suppressive Rate (%)=[(C−D)/C]×100

[4] = system: Itching Induced by SPC; assay: Suppressive effect on itching induced by SPC (scratching behavior in mice); type: in vivo, ddY male mice; details: 300 mg/kg orally one hour before SPC (50 μg/site s.c.), counted for 60 minutes, ten mice per group
Method: SPC (50 μg/site) was subcutaneously administered (an SPC-administered group) to the rostal back of ddY male mice (3 to 4 weeks age), the mice were placed in a cage made of acrylic for the observation (7.5×7.5×15 cm) and behavior of the mice was taken by a video camera for 60 minutes in the absence of observing persons. The video camera was subjected to a playback and numbers of scratching behavior by hind limb were counted by visual observation. In a negative control group (a group to which a physiological saline was administered), a physiological saline (0.1 mL/site) was administered instead of SPC. In the compound-administered group, each compound 1 and compound 3 (300 mg/kg) was suspended in a 0.5 w/v % aqueous solution of methyl cellulose (MC) and orally administered at one hour before administration of SPC. In each of the SPC-administered group and the physiological saline-administered group, a 0.5 w/v % aqueous solution of MC (10 mL/kg) was orally administered at one hour before administration of SPC and physiological saline, respectively. The test was conducted for ten mice per group. Suppressive rate by the compounds for scratching behavior induced by SPC was calculated by the following formula. In the formula, A and B have the following meanings, respectively. […]

Row | SMILES | IC50 [1] [nM] | Numbers of Scratching Behavior for 1 Hour after Application of Hapten ([2]; 100 mg/kg orally 1 hour before antigen application on day 16) | Numbers of Scratching Behavior for 1 Hour after Application of Hapten ([2]; 300 mg/kg orally 1 hour before antigen application on day 16) | Numbers of Scratching Behavior (numbers/60 min) [3] [numbers/60 min] | Suppressive rate(%) of scratching behavior induced by Compound 48/80 [3] [%] | Numbers of scratching behavior of the compound-administered group [4]
1 | CCc1nc2c(C)cc(C)nc2n1Cc1ccc2c(c1)CCc1cc(CN3CCN(C)CC3)ccc1N2 [Compound 1, 2-(2-Ethyl-5,7-dimethyl-3H-imidazo[4,5-b]pyridin-3-ylmethyl)-8-(4-methylpiperazin-1-ylmethyl)-10,11-dihydro-5H-dibenz[b,f]azepine] | 4 | 138 ± 33 | 2 ± 1 | 16 | 54 | 13
2 | CCc1nc2c(C)cc(C)nc2n1Cc1ccc2c(c1)CCc1cc(CN3CC=CCC3)ccc1N2 [Compound 2, 2-(2-Ethyl-5,7-dimethyl-3H-imidazo[4,5-b]pyridin-3-ylmethyl)-8-(1,2,5,6-tetrahydropyridin-1-ylmethyl)-10,11-dihydro-5H-dibenz[b,f]azepine] | 3.2 | – | – | – | – | –
3 | CCc1nc2c(C)cc(C)nc2n1Cc1ccc2c(c1)CCc1cc(CN3CCCC3)ccc1N2 [Compound 3, 2-(2-Ethyl-5,7-dimethyl-3H-imidazo[4,5-b]pyridin-3-ylmethyl)-8-(pyrrolidin-1-ylmethyl)-10,11-dihydro-5H-dibenz[b,f]azepine] | 2.3 | – | – | 26 | 52 | 18
4 | CCc1nc2c(C)cc(C)nc2n1Cc1ccc2c(c1)CCc1cc(CN3CCOCC3)ccc1N2 [Compound 4, 2-(2-Ethyl-5,7-dimethyl-3H-imidazo[4,5-b]pyridin-3-ylmethyl)-8-morpholinomethyl-10,11-dihydro-5H-dibenz[b,f]azepine] | 5.8 | – | – | – | – | –
5 | CCc1nc2c(C)cc(C)nc2n1Cc1ccc2c(c1)CCc1cc(CN3CC(C)CC(C)C3)ccc1N2 (stereo not shown) [Compound 5] | 14 | – | – | – | – | –
